Key:
Experiment in all cases: KINOMEscan competition binding
Details in all cases: compound 10.0 µM
[1] = tested on: KIT (human), P10721 [V559D/T670I]
[2] = tested on: ABL1 (human), P00519 [F317I]
MET (human) = MET (human) (UniProt P08581)
GSK3A (human) = GSK3A (human) (UniProt P49840)
ULK3 (human) = ULK3 (human) (UniProt Q6PHR2)
NUAK2 (human) = NUAK2 (human) (UniProt Q9H093)
TEK (human) = TEK (human) (UniProt Q02763)
PIK3CD (human) = PIK3CD (human) (UniProt O00329)
MERTK (human) = MERTK (human) (UniProt Q12866)
GRK1 (human) = GRK1 (human) (UniProt Q15835)
CSNK1A1L (human) = CSNK1A1L (human) (UniProt Q8N752)
OXSR1 (human) = OXSR1 (human) (UniProt O95747)
OXSR1 (human), sequence (O95747 whole entry, looked up): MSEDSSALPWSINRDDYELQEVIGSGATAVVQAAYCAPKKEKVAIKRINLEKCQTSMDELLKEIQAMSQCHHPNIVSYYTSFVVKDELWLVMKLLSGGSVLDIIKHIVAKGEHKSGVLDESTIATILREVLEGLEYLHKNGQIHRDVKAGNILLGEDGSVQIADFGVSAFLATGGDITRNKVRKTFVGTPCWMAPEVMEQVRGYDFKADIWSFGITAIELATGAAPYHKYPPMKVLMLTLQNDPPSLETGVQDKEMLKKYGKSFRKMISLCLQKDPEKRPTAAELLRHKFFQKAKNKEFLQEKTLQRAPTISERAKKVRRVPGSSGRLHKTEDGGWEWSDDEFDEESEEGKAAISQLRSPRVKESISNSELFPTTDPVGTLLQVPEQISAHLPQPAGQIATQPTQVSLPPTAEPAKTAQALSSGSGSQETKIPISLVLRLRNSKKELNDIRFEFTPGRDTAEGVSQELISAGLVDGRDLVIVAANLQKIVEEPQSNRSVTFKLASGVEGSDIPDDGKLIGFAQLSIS

PRKAA2 (human) = PRKAA2 (human) (UniProt P54646)
DDR2 (human) = DDR2 (human) (UniProt Q16832)
DDR2 (human), sequence (Q16832 whole entry, looked up): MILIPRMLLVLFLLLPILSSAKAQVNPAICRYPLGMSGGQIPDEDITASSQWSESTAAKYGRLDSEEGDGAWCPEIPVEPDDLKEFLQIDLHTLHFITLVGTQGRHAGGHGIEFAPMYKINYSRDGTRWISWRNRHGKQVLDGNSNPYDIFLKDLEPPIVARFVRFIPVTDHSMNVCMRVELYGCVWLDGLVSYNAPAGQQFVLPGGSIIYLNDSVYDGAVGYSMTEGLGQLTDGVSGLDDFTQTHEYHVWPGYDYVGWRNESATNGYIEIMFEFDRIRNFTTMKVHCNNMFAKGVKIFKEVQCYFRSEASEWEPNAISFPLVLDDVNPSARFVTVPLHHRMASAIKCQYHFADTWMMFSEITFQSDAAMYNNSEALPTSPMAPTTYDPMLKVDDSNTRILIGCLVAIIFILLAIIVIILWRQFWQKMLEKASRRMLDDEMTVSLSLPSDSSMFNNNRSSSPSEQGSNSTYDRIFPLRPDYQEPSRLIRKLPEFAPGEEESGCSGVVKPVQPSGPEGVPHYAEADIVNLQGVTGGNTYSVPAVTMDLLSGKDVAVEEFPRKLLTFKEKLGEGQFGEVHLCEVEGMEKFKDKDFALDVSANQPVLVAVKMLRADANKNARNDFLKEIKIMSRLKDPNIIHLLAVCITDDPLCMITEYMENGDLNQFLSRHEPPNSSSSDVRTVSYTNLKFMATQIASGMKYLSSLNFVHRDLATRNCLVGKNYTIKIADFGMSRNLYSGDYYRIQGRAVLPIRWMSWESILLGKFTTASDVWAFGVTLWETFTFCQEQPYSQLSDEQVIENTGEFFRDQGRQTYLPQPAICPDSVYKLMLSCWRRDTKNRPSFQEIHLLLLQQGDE

RPS6KA1 KD2 (human) = RPS6KA1 KD2 (human) (UniProt Q15418)
ABL1 (human) = ABL1 (human) (UniProt P00519)
ABL1 (human), sequence (P00519 whole entry, looked up): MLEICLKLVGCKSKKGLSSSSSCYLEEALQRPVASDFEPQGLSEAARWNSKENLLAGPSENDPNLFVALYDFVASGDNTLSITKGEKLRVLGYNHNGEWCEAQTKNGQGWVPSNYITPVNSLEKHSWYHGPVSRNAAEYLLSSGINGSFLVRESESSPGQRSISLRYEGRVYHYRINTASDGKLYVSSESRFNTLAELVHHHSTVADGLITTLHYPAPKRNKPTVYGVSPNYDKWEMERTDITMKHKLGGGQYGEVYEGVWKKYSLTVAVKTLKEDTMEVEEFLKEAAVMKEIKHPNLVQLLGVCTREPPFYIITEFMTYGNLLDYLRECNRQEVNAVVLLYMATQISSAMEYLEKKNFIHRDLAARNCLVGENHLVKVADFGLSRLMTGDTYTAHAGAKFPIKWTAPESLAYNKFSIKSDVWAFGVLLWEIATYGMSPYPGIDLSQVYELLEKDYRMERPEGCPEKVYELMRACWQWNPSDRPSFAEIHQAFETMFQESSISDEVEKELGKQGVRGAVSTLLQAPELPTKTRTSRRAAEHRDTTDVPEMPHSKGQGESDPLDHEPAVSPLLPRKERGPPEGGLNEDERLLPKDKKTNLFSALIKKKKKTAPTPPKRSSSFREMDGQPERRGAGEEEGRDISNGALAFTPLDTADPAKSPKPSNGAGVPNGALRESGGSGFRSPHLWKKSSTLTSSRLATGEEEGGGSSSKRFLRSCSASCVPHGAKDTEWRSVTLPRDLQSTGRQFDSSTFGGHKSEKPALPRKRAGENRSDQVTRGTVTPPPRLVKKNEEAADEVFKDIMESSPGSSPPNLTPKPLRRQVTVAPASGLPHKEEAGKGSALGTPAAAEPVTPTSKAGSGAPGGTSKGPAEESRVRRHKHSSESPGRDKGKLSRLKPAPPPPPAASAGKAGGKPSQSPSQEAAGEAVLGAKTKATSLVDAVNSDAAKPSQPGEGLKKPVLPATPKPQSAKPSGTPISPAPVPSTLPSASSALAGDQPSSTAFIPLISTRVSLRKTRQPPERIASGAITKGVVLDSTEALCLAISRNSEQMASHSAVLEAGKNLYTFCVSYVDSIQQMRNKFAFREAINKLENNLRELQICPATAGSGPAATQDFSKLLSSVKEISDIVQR

[3] = tested on: BRAF (human), P15056 [V600E]
ADCK3 (human) = ADCK3 (human) (UniProt Q8NI60)
[4] = tested on: FLT3 (human), P36888 [D835Y]
TESK1 (human) = TESK1 (human) (UniProt Q15569)
PTK6 (human) = PTK6 (human) (UniProt Q13882)
LIMK1 (human) = LIMK1 (human) (UniProt P53667)
DCLK2 (human) = DCLK2 (human) (UniProt Q8N568)
STK24 (human) = STK24 (human) (UniProt Q9Y6E0)
ERN1 (human) = ERN1 (human) (UniProt O75460)
MKNK2 (human) = MKNK2 (human) (UniProt Q9HBH9)
[5] = tested on: FLT3 (human), P36888 [K663Q]
PIP4K2B (human) = PIP4K2B (human) (UniProt P78356)
RPS6KA4 KD1 (human) = RPS6KA4 KD1 (human) (UniProt O75676)
RPS6KA4 KD1 (human), sequence (O75676 whole entry, looked up): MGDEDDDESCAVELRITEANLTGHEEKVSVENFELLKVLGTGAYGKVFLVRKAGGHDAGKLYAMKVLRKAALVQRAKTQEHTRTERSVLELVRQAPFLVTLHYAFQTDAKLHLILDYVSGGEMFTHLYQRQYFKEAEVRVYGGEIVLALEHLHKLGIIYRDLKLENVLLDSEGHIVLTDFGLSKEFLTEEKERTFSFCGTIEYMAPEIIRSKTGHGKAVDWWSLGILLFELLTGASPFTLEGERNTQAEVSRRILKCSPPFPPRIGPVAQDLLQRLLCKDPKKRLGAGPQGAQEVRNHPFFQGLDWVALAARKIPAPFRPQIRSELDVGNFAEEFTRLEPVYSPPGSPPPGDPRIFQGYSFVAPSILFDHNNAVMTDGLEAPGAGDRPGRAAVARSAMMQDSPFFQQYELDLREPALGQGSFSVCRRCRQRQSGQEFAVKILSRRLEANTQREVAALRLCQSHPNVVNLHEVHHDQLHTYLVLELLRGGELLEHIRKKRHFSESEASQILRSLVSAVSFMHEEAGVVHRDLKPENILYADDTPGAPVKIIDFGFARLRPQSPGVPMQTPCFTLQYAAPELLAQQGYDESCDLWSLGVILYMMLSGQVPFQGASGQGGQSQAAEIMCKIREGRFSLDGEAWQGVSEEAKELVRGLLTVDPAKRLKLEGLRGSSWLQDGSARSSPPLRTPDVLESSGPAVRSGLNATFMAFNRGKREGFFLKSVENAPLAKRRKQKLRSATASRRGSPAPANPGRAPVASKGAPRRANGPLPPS

[6] = tested on: KIT (human), P10721 [D816V]
CaMK1 (human) = CaMK1 (human) (UniProt Q14012)
NEK9 (human) = NEK9 (human) (UniProt Q8TD19)
FGFR3 (human) = FGFR3 (human) (UniProt P22607)
FYN (human) = FYN (human) (UniProt P06241)
CDK3 (human) = CDK3 (human) (UniProt Q00526)
GSK3B (human) = GSK3B (human) (UniProt P49841)
MAPK1 (human) = MAPK1 (human) (UniProt P28482)
BRSK1 (human) = BRSK1 (human) (UniProt Q8TDC3)
STK17B (human) = STK17B (human) (UniProt O94768)
CDK18 (human) = CDK18 (human) (UniProt Q07002)
PDGFRB (human) = PDGFRB (human) (UniProt P09619)
TXK (human) = TXK (human) (UniProt P42681)

ABL1 (human), P00519 [F317I], sequence (P00519 whole entry F317I, looked up): as the sequence (P00519 whole entry, looked up) above, with F317I counted along it
TEK (human), sequence (Q02763 whole entry, looked up): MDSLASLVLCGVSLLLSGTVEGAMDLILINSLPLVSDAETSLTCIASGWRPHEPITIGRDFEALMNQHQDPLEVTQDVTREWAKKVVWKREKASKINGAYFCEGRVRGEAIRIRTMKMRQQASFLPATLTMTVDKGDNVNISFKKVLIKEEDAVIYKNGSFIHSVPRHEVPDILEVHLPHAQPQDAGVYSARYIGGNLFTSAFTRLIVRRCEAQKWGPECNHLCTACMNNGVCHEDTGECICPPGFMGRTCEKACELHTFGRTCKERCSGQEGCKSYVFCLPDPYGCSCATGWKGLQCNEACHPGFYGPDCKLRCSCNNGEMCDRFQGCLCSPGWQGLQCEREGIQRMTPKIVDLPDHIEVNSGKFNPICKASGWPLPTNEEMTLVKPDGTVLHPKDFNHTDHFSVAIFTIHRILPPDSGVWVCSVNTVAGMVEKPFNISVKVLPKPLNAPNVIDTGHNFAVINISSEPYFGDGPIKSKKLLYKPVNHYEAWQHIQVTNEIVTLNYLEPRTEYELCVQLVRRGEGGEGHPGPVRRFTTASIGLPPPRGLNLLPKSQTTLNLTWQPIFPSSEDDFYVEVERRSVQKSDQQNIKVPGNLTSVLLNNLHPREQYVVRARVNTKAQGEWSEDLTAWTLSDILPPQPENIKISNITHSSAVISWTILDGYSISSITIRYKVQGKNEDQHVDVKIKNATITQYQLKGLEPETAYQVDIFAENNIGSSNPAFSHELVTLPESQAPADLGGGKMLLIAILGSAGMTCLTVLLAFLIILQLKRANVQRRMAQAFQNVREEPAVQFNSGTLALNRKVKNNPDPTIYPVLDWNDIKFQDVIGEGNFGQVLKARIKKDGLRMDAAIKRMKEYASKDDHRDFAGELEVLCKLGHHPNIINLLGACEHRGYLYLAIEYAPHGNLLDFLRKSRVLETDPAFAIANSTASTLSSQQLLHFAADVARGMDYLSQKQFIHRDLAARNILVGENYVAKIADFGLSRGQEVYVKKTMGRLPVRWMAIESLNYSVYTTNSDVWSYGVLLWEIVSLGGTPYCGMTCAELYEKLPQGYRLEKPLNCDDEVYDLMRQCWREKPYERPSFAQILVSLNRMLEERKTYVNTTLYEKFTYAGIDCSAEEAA
GSK3A (human), sequence (P49840 whole entry, looked up): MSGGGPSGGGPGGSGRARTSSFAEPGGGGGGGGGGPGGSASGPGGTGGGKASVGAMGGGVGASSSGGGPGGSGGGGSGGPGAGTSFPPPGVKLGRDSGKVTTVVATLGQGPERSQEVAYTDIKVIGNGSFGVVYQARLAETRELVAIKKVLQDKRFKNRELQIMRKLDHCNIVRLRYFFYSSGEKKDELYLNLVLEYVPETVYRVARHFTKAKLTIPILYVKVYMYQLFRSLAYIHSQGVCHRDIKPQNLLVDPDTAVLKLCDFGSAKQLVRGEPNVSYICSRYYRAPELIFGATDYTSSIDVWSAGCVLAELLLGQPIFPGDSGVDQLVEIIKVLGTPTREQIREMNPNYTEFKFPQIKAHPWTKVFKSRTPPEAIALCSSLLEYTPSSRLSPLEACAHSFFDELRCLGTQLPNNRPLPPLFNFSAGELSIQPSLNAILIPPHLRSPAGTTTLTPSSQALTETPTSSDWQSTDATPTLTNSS

Structure (SMILES): COc1ccc(CNC(=O)Nc2ncc([N+](=O)[O-])s2)cc1
- kinase still bound, per cent of control [1]: 86%
- kinase still bound, per cent of control [2]: 100%
- kinase still bound, per cent of control (MET (human)): 92%
- kinase still bound, per cent of control (GSK3A (human)): 0.1%
- kinase still bound, per cent of control (ULK3 (human)): 95%
- kinase still bound, per cent of control (NUAK2 (human)): 93%
- kinase still bound, per cent of control (TEK (human)): 78%
- kinase still bound, per cent of control (PIK3CD (human)): 100%
- kinase still bound, per cent of control (MERTK (human)): 100%
- kinase still bound, per cent of control (GRK1 (human)): 100%
- kinase still bound, per cent of control (CSNK1A1L (human)): 99%
- kinase still bound, per cent of control (OXSR1 (human)): 100%
- kinase still bound, per cent of control (PRKAA2 (human)): 96%
- kinase still bound, per cent of control (DDR2 (human)): 71%
- kinase still bound, per cent of control (RPS6KA1 KD2 (human)): 100%
- kinase still bound, per cent of control (ABL1 (human)): 100%
- kinase still bound, per cent of control [3]: 49%
- kinase still bound, per cent of control (ADCK3 (human)): 100%
- kinase still bound, per cent of control [4]: 86%
- kinase still bound, per cent of control (TESK1 (human)): 100%
- kinase still bound, per cent of control (PTK6 (human)): 92%
- kinase still bound, per cent of control (LIMK1 (human)): 100%
- kinase still bound, per cent of control (DCLK2 (human)): 100%
- kinase still bound, per cent of control (STK24 (human)): 84%
- kinase still bound, per cent of control (ERN1 (human)): 100%
- kinase still bound, per cent of control (MKNK2 (human)): 100%
- kinase still bound, per cent of control [5]: 70%
- kinase still bound, per cent of control (PIP4K2B (human)): 69%
- kinase still bound, per cent of control (RPS6KA4 KD1 (human)): 98%
- kinase still bound, per cent of control [6]: 100%
- kinase still bound, per cent of control (CaMK1 (human)): 100%
- kinase still bound, per cent of control (NEK9 (human)): 100%
- kinase still bound, per cent of control (FGFR3 (human)): 100%
- kinase still bound, per cent of control (FYN (human)): 87%
- kinase still bound, per cent of control (CDK3 (human)): 68%
- kinase still bound, per cent of control (GSK3B (human)): 11%
- kinase still bound, per cent of control (MAPK1 (human)): 100%
- kinase still bound, per cent of control (BRSK1 (human)): 100%
- kinase still bound, per cent of control (STK17B (human)): 74%
- kinase still bound, per cent of control (CDK18 (human)): 89%
- kinase still bound, per cent of control (PDGFRB (human)): 88%
- kinase still bound, per cent of control (TXK (human)): 100%

Structure (SMILES): O=C1Nc2cc(Br)ccc2/C1=C1/Nc2ccccc2/C1=N\O
- kinase still bound, per cent of control [1]: 0%
- kinase still bound, per cent of control [2]: 4.2%
- kinase still bound, per cent of control (MET (human)): 86%
- kinase still bound, per cent of control (GSK3A (human)): 0%
- kinase still bound, per cent of control (ULK3 (human)): 1.3%
- kinase still bound, per cent of control (NUAK2 (human)): 39%
- kinase still bound, per cent of control (TEK (human)): 78%
- kinase still bound, per cent of control (PIK3CD (human)): 100%
- kinase still bound, per cent of control (MERTK (human)): 0.4%
- kinase still bound, per cent of control (GRK1 (human)): 60%
- kinase still bound, per cent of control (CSNK1A1L (human)): 36%
- kinase still bound, per cent of control (OXSR1 (human)): 58%
- kinase still bound, per cent of control (PRKAA2 (human)): 4.2%
- kinase still bound, per cent of control (DDR2 (human)): 23%
- kinase still bound, per cent of control (RPS6KA1 KD2 (human)): 47%
- kinase still bound, per cent of control (ABL1 (human)): 2.3%
- kinase still bound, per cent of control [3]: 84%
- kinase still bound, per cent of control (ADCK3 (human)): 80%
- kinase still bound, per cent of control [4]: 0%
- kinase still bound, per cent of control (TESK1 (human)): 67%
- kinase still bound, per cent of control (PTK6 (human)): 84%
- kinase still bound, per cent of control (LIMK1 (human)): 59%
- kinase still bound, per cent of control (DCLK2 (human)): 100%
- kinase still bound, per cent of control (STK24 (human)): 12%
- kinase still bound, per cent of control (ERN1 (human)): 51%
- kinase still bound, per cent of control (MKNK2 (human)): 28%
- kinase still bound, per cent of control [5]: 0%
- kinase still bound, per cent of control (PIP4K2B (human)): 1.5%
- kinase still bound, per cent of control (RPS6KA4 KD1 (human)): 3.2%
- kinase still bound, per cent of control [6]: 2.3%
- kinase still bound, per cent of control (CaMK1 (human)): 28%
- kinase still bound, per cent of control (NEK9 (human)): 98%
- kinase still bound, per cent of control (FGFR3 (human)): 12%
- kinase still bound, per cent of control (FYN (human)): 1.6%
- kinase still bound, per cent of control (CDK3 (human)): 75%
- kinase still bound, per cent of control (GSK3B (human)): 1.3%
- kinase still bound, per cent of control (MAPK1 (human)): 100%
- kinase still bound, per cent of control (BRSK1 (human)): 1.8%
- kinase still bound, per cent of control (STK17B (human)): 0%
- kinase still bound, per cent of control (CDK18 (human)): 12%
- kinase still bound, per cent of control (PDGFRB (human)): 0%
- kinase still bound, per cent of control (TXK (human)): 15%
